Converted amounts (≈) assume the structure as drawn.
Conditions: buffer; pH 7.4; 6.0 h; 150.0 µM

solubility kinetic [µg/mL] | Structure (SMILES)
> 69 | CC#CC(=O)N1CCC[C@H]1c1nc(-c2ccc(C(=O)Nc3ccccn3)cc2)c2c(N)nccn12
3.85 (≈ 8.08 µM) | CCN(CC)S(=O)(=O)c1ccc(N2CCOCC2)c(NC(=O)c2[nH]c(C)c(C(C)=O)c2C)c1
6.85 (≈ 14.2 µM) | Cc1nc2sccn2c(=O)c1S(=O)(=O)Nc1ccc(N2CCN(S(C)(=O)=O)CC2)cc1
< 1 | COc1ccc(C(=O)Nc2nc(-c3ccccc3)cs2)c(NS(=O)(=O)c2ccc(C)cc2)c1
> 76 | Cc1noc(C)c1-c1cc(-c2ccc3c(c2)C(=O)NC3)cn2cncc12
2.03 (≈ 5.26 µM) | Cc1cccc(C)c1C(=O)Nc1cccc([S+](=O)([O-])N2CCCCCC2)c1
< 1 | O=S(=O)(Nc1cccc2ccccc12)c1ccc(NCc2cccc(Cl)c2O)cc1
4.03 (≈ 8.68 µM) | Cc1cnc(SCc2ccccn2)nc1C1CCCN(C(=O)c2scc3c2CCCC3)C1 (centres undefined)
1.14 (≈ 4.28 µM) | CC(=O)c1c(C)n(-c2ccccc2)c2ccc(O)cc12
